Source: patent US9266835B2, “Quinoline derivatives useful as CB-1 inverse agonists” (JANSSEN PHARMACEUTICA NV, priority 2014, dated 2016)
Read-outs that look alike come from different tables or passages of the source.

Assays:
[1] = target: Human CB2R (Cannabinoid receptor 2) (Homo sapiens (Human), UniProt P34972); test: CB-2 in vitro cAMP assay (HTRF), inverse agonism; type: cell-based; conditions: mean where tested more than once
[2] = Mouse Fast PK/BBB (plasma and brain concentration); type: in vivo; conditions: male, C57bl/6j, oral, N=3 (dose given as 30 mg/kg and 20 mg/kg)
Description: (§1) Male Sprague Dawley rats were ordered from Charles River (225-250 gm upon arrival). They were fed standard chow diet (Purina 5001) and housed 2 per cage. Male C57bl/6j mice were ordered from Charles River at 22-25 g and housed 3 per cage. They were fed standard chow (Purina 5001). All animals were housed in a temperature-controlled room with 12-hour light/dark cycle. Animals were given food and water ad libitum, except as noted.
(§2) Test compounds were formulated in 10% PEG400 and 10% solutol. Test compounds were administered by oral gavage (5 ml kg^−1).
Male C57bl/6j mice were dosed with test compounds at 30 mg/kg. Plasma was collected via retro-orbital bleeding at 1 hr and 4 hrs after dosing. Whole brain without cerebellum was collected at 4 hrs after dosing. Wet brain weight was recorded before freezing. Brains were homogenized in saline and sent for analysis for determination of concentration of test compound.
Table BIO-3 below present results for representative compounds of the present invention, tested according to the procedure as described above. Each compound was tested in three animals (N=3) and administered PA at 20 mg/kg

[3] = Open Field Locomotor Activity in Rats (CNS activity), stereotypic counts; type: in vivo, rat; conditions: n=8, 4 hours, dose not printed in row (doses 3 and 10 mg/kg)
Description: as §1, §2
Male SD rats were weighed and transferred to the Activity Chambers with access to water. After a 2-hr acclimation period, the rats were dosed with vehicle or test compound (@ 3 and 10 mg/kg). The Activity Chamber monitoring software program was initiated and automatically recorded rat activity in each chamber for a period of 4 hours. At the end of the 4 hour monitoring period, the software was stopped and the rats were removed from the activity chambers. The rats were anesthetized and blood samples were obtained via retro-orbital puncture to determine plasma concentration of compounds. The rats were immediately euthanized with CO2 and the brains removed, washed with PBS, frozen on dry ice and stored at −80° C. for receptor occupancy (RO) analysis. […]

[4] = Open field locomotor study in rats: plasma and brain concentrations 4 hrs post dosing; type: in vivo; conditions: male, Sprague Dawley, rat, oral
Description: as §1, §2
Male SD rats were weighed and transferred to the Activity Chambers with access to water. After a 2-hr acclimation period, the rats were dosed with vehicle or test compound (@ 3 and 10 mg/kg). The Activity Chamber monitoring software program was initiated and automatically recorded rat activity in each chamber for a period of 4 hours. At the end of the 4 hour monitoring period, the software was stopped and the rats were removed from the activity chambers. The rats were anesthetized and blood samples were obtained via retro-orbital puncture to determine plasma concentration of compounds. The rats were immediately euthanized with CO2 and the brains removed, washed with PBS, frozen on dry ice and stored at −80° C. for receptor occupancy (RO) analysis.
Satellite groups of 3 rats were dosed with test compound at 3 mg/kg and 10 mg/kg respectively. Four hours later, the rats were anesthetized. Blood was collected from these rats and then they were perfused with 400 ml heparinized saline through the left ventricle of the heart. The brains were removed and homogenized in PBS (4 ml/gm tissue). The samples were submitted for determination of plasma and brain compound levels.
Compound #44 was tested in n=8 animals, according to the procedure as described above, with stereotypic counts as listed in Table BIO-5A; and plasma and brain drug levels as listed in Table BIO-5B, below.

[5] = Mouse Fast PK/BBB (plasma and brain concentration); type: in vivo; conditions: male, C57bl/6j, brain, oral, N=3 (dose given as 30 mg/kg and 20 mg/kg), read-out: BRAIN Mean Conc. ± Std. Dev

Sequence of Human CB2R (Cannabinoid receptor 2) (P34972 whole entry): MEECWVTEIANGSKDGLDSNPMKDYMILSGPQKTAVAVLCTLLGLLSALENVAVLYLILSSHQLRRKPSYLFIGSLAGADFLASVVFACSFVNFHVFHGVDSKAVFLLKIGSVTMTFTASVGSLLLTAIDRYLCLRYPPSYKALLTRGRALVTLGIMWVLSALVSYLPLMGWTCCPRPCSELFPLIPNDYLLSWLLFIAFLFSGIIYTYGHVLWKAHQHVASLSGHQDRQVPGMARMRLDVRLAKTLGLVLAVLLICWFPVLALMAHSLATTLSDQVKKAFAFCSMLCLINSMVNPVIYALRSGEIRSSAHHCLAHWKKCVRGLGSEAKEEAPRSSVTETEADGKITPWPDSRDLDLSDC

EC50 [1]: 5.23 µM | concentration at 4 h ([2]; brain, read-out: BRAIN Mean Conc. ± Std. Dev): 11.8 ± 8.99 ng/mL | concentration at 1 h ([2]; plasma, 1 hr, read-out: PLASMA Mean Conc. ± Std. Dev): 1050 ± 122 ng/mL | concentration at 4 h ([2]; plasma, read-out: PLASMA Mean Conc. ± Std. Dev): 1180 ± 148 ng/mL | Stereotypic Counts (MEAN) ([3]; first #44 row): 3250 | Stereotypic Counts (MEAN) ([3]; second #44 row): 2850 | concentration at 4 h ([4]; brain, 3 mg/kg, read-out: Brain Mean ± Std Dev): 9.85 ng/g | concentration at 4 h ([4]; brain, 10 mg/kg, read-out: Brain Mean ± Std Dev): 22.7 ng/g | concentration at 4 h ([4]; plasma, 3 mg/kg, read-out: Plasma Mean ± Std Dev): 126 ng/mL | concentration at 4 h ([4]; plasma, 10 mg/kg, read-out: Plasma Mean ± Std Dev): 501 ng/mL | concentration at 1 h [5]: 7.62 ± 2.28 ng/mL
SMILES: O=c1cc(NC2CCN(S(=O)(=O)C(F)(F)F)CC2)c2cc(C(c3ccc(Cl)cc3)c3ccc(Cl)cc3)ccc2[nH]1 [Compound #44, 6-(bis(4-chlorophenyl)methyl)-4-(1-(trifluoromethylsulfonyl)piperidin-4-ylamino)quinolin-2(1H)-one]
